In US20120220581A1, “IMIDAZO[1,2-b]PYRIDAZINE DERIVATIVES AND THEIR USE AS PDE10 INHIBITORS” (Janssen-Cilag, S.A., priority 2009, published 2012):

Legend:
[1] = target: T1, Rat recombinant PDE10A (rPDE10A2) (Rattus norvegicus, UniProt Q9QYJ6); assay: In vitro assay PDE10A (SPA, 3H-cAMP); assay type: biochemical; details: pIC50 corresponds to the −log IC50 expressed in mol/L; read-out: PDE10A2 pIC50 (converted)
T1 construct: inferred from the Ni metal chelate purification; made in house; host or cells: Sf9 insect cells (baculovirus)
T1 sequence (Q9QYJ6 1-794): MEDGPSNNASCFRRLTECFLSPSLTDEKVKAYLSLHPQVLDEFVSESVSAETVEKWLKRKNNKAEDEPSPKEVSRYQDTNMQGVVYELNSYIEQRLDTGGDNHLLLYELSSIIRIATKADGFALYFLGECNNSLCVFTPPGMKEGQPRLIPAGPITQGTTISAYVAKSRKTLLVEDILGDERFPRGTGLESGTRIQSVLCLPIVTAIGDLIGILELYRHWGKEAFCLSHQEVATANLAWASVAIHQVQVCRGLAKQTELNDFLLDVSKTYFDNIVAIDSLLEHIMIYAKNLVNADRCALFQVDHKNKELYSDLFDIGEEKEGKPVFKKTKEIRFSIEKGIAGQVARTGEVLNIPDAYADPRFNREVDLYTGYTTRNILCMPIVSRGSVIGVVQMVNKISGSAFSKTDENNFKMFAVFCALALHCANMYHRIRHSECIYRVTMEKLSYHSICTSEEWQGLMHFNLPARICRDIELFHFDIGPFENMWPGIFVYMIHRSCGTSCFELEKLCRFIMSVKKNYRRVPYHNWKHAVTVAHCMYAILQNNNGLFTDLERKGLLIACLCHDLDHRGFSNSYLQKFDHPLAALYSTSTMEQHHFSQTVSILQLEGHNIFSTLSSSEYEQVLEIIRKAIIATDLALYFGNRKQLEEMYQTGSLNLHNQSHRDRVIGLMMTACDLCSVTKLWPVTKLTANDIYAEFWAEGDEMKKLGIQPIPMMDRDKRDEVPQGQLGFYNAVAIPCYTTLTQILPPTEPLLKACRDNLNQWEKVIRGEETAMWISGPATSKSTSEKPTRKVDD
Description: Rat recombinant PDE10A (rPDE10A2) was expressed in Sf9 cells using a recombinant rPDE10A baculovirus construct. Cells were harvested after 48 h of infection and the rPDE10A protein was purified by metal chelate chromatography on Ni-sepharose 6FF. Tested compounds were dissolved and diluted in 100% DMSO to a concentration 100 fold of the final concentration in the assay. Compound dilutions (0.4 μl) were added in 384 well plates to 20 μl of incubation buffer (50 mM Tris pH 7.8, 8.3 mM MgCl2, 1.7 mM EGTA). 10 μl of rPDE10A enzyme in incubation buffer was added and the reaction was started by addition of 10 μl substrate to a final concentration of 60 nM cAMP and 0.008 μCi ^3H-cAMP. The reaction was incubated for 60 minutes at room temperature. […] After sedimentation of the beads during 30 minutes the radioactivity was measured in a Perkin Elmer Topcount scintillation counter and results were expressed as cpm. For blanc values the enzyme was omitted from the reaction and replaced by incubation buffer. Control values were obtained by addition of a final concentration of 1% DMSO instead of compound. The same assay principle is applied for the measurement of the affinity of the compound for other members of the PDE family with appropriate modifications in incubation buffer, substrate concentration, incubation time and stop solution.

[2] = tested on: apomorphine-induced stereotypy in rats; assay: Apomorphine-induced stereotypy in rats (APO); assay type: in vivo; details: Rattus norvegicus, n.d.: found not active at threshold dose 2.5 mg/kg or 10 mg/kg (a)
Description: Apomorphine (1.0 mg/kg, i.v.)-induced stereotypy (compulsive sniffing, licking, chewing) was scored every 5 min over the first hour after injection of apomorphine, following a 1 hour interval pre-treatment with the test compound. The score system was: (3) pronounced, (2) moderate, (1) slight, and (0) absent.

[3] = po, * not soluble, tested orally as a suspension

IC50 [1]	SMILES	ED50 ([2]; not further tested)	ED50 [2, 3]
27.5 nM	COCCc1ccc(-c2c(C)nc3c(-c4ccncc4)ccnn23)cn1 [compound 20, 3-[6-(2-methoxyethyl)-3-pyridinyl]-2-methyl-8-(4-pyridinyl)-imidazo[1,2-b]pyridazine]	> 2.5 mg/kg	
17.4 nM	c1cc(-c2ccnn3c(-c4ccc(N5CCOCC5)nc4)c(C4CC4)nc23)ccn1 [compound 46, 2-cyclopropyl-3-[6-(4-morpholinyl)-3-pyridinyl]-8-(4-pyridinyl)-imidazo[1,2-b]pyridazine]	> 2.5 mg/kg	
28.8 nM	COC(C)(C)Cn1cc(-c2c(C3CC3)nc3c(N4CCOCC4)ccnn23)cn1 [compound 38, 2-cyclopropyl-3-[1-(2-methoxy-2-methylpropyl)-1H-pyrazol-4-yl]-8-(4-morpholinyl)-imidazo[1,2-b]pyridazine]	> 2.5 mg/kg	
195 nM	Cc1nc2c(-c3ccncc3)cc(C3CC3)nn2c1-c1ccc(C2CCOCC2)nc1 [compound 81, 6-cyclopropyl-2-methyl-8-(4-pyridinyl)-3-[6-(tetrahydro-2H-pyran-4-yl)-3-pyridinyl]-imidazo[1,2-b]pyridazine]	> 2.5 mg/kg	
178 nM	Cc1cc(-c2ccncc2)c2nc(C3CC3)c(-c3ccc(N4CCNCC4)nc3)n2n1 [compound 101, 2-cyclopropyl-6-methyl-3-[6-(1-piperazinyl)-3-pyridinyl]-8-(4-pyridinyl)-imidazo[1,2-b]pyridazine]	> 2.5 mg/kg	
151 nM	COCCOc1cncc(-c2c(C)nc3c(-c4ccncc4)ccnn23)c1 [compound 149, 3-[5-(2-methoxyethoxy)-3-pyridinyl]-2-methyl-8-(4-pyridinyl)-imidazo[1,2-b]pyridazine]	> 2.5 mg/kg	
45.7 nM	COCCOc1ccc(-c2c(C3CC3)nc3c(-c4ccncc4)ccnn23)cn1 [compound 44, 2-cyclopropyl-3-[6-(2-methoxyethoxy)-3-pyridinyl]-8-(4-pyridinyl)-imidazo[1,2-b]pyridazine]	> 2.5 mg/kg	
97.7 nM	Cc1nc2c(-c3ccncc3)ccnn2c1-c1ccc(C2CC2)nc1 [compound 111, 3-(6-cyclopropyl-3-pyridinyl)-2-methyl-8-(4-pyridinyl)-imidazo[1,2-b]pyridazine]	> 2.5 mg/kg	
93.3 nM	COCCOc1cncc(-c2c(C)nc3c(N4CCOCC4)cc(C4CC4)nn23)c1 [compound 42, 6-cyclopropyl-3-[5-(2-methoxyethoxy)-3-pyridinyl]-2-methyl-8-(4-morpholinyl)-imidazo[1,2-b]pyridazine]	> 2.5 mg/kg	
23.4 nM	COC(C)(C)c1ccc(-c2c(C)nc3c(N4CCOCC4)ccnn23)cn1 [compound 6, 3-[6-(1-methoxy-1-methylethyl)-3-pyridinyl]-2-methyl-8-(4-morpholinyl)-imidazo[1,2-b]pyridazine]	> 2.5 mg/kg	
44.7 nM	c1cc(-c2ccnn3c(-c4ccc(N5CCNCC5)nc4)c(C4CC4)nc23)ccn1 [compound 102, 2-cyclopropyl-3-[6-(1-piperazinyl)-3-pyridinyl]-8-(4-pyridinyl)-imidazo[1,2-b]pyridazine]	> 2.5 mg/kg	
224 nM	COCCc1ccc(-c2c(OC)nc3c(N4CCOCC4)ccnn23)cn1 [compound 12, 2-methoxy-3-[6-(2-methoxyethyl)-3-pyridinyl]-8-(4-morpholinyl)-imidazo[1,2-b]pyridazine]	> 2.5 mg/kg	
25.1 nM	Cc1nc2c(N3CCOCC3)ccnn2c1-c1ccnc(CC(C)C)c1 [compound 105, 2-methyl-3-[2-(2-methylpropyl)-4-pyridinyl]-8-(4-morpholinyl)-imidazo[1,2-b]pyridazine]	> 2.5 mg/kg	
129 nM	Cc1nc2c(N3CCOCC3)ccnn2c1-c1ccc(CCN2CCCC2)nc1 [compound 77, 2-methyl-8-(4-morpholinyl)-3-[6-[2-(1-pyrrolidinyl)ethyl]-3-pyridinyl]-imidazo[1,2-b]pyridazine]	> 2.5 mg/kg	
35.5 nM	Cc1nc2c(N3CCOCC3)ccnn2c1-c1cnn(Cc2cccnc2)c1 [compound 115, 2-methyl-8-(4-morpholinyl)-3-[1-(3-pyridinylmethyl)-1H-pyrazol-4-yl]-imidazo[1,2-b]pyridazine]		> 10 mg/kg
27.5 nM	COC(C)(C)Cn1cc(-c2c(C)nc3c(-c4ccncc4)ccnn23)cn1 [compound 123, 3-[1-(2-methoxy-2-methylpropyl)-1H-pyrazol-4-yl]-2-methyl-8-(4-pyridinyl)-imidazo[1,2-b]pyridazine]	> 2.5 mg/kg	
120 nM	COCCc1ccc(-c2c(C)nc3c(-c4ccncc4)cc(C4CC4)nn23)cn1 [compound 14, 6-cyclopropyl-3-[6-(2-methoxyethyl)-3-pyridinyl]-2-methyl-8-(4-pyridinyl)-imidazo[1,2-b]pyridazine]	> 2.5 mg/kg	
479 nM	COCCc1ccc(-c2c(C)nc3c(N4CCOCC4)cc(C(F)(F)F)nn23)cn1 [compound 64, 3-[6-(2-methoxyethyl)-3-pyridinyl]-2-methyl-8-(4-morpholinyl)-6-(trifluoromethyl)-imidazo[1,2-b]pyridazine]		> 2.5 mg/kg
162 nM	COCCOc1ncc(-c2c(C)nc3c(-c4ccncc4)ccnn23)cc1C [compound 8, 3-[6-(2-methoxyethoxy)-5-methyl-3-pyridinyl]-2-methyl-8-(4-pyridinyl)-imidazo[1,2-b]pyridazine]	> 2.5 mg/kg	
214 nM	COC(C)(C)Cc1ccc(-c2c(C3CC3)nc3c(N4CCOCC4)cc(C)nn23)cn1 [compound 53, 2-cyclopropyl-3-[6-(2-methoxy-2-methylpropyl)-3-pyridinyl]-6-methyl-8-(4-morpholinyl)-imidazo[1,2-b]pyridazine]	> 2.5 mg/kg	
25.1 nM	Cc1nc2c(N3CCOCC3)ccnn2c1-c1ccnc(NC(C)C)c1 [compound 93, N-(1-methylethyl)-4-[2-methyl-8-(4-morpholinyl)imidazo[1,2-b]pyridazin-3-yl]-2-pyridinamine]	> 2.5 mg/kg	
44.7 nM	Cc1cc(-c2ccncc2)c2nc(C3CC3)c(-c3ccc(C4CCOCC4)nc3)n2n1 [compound 80, 2-cyclopropyl-6-methyl-8-(4-pyridinyl)-3-[6-(tetrahydro-2H-pyran-4-yl)-3-pyridinyl]-imidazo[1,2-b]pyridazine]	> 2.5 mg/kg	
19.1 nM	CCOC(C)(C)c1ccc(-c2c(C)nc3c(N4CCOCC4)ccnn23)cn1 [compound 5, 3-[6-(1-ethoxy-1-methylethyl)-3-pyridinyl]-2-methyl-8-(4-morpholinyl)-imidazo[1,2-b]pyridazine]	> 2.5 mg/kg	
141 nM	Cc1nc2c(-c3ccncc3)ccnn2c1-c1ccc(N2CCNCC2)nc1 [compound 97, 2-methyl-3-[6-(1-piperazinyl)-3-pyridinyl]-8-(4-pyridinyl)-imidazo[1,2-b]pyridazine]	> 2.5 mg/kg	
57.5 nM	Cc1nc2c(N3CCOCC3)ccnn2c1-c1ccnc(N2CCCC2)c1 [compound 92, 2-methyl-8-(4-morpholinyl)-3-[2-(1-pyrrolidinyl)-4-pyridinyl]-imidazo[1,2-b]pyridazine]	> 2.5 mg/kg	
195 nM	COCCc1ccc(-c2c(C)nc3c(N4CCOCC4)cc(C4CC4)nn23)cn1 [compound 13, 6-cyclopropyl-3-[6-(2-methoxyethyl)-3-pyridinyl]-2-methyl-8-(4-morpholinyl)-imidazo[1,2-b]pyridazine]	> 2.5 mg/kg	
